Reference: ChEMBL document CHEMBL1121620, “Glycerides as prodrugs. 2. 1,3-Dialkanoyl-2-(2-methyl-4-oxo-1,3-benzodioxan-2-yl)glycerides (cyclic aspirin triglycerides) as antiinflammatory agents” (1980)

Experiments:
Format in all cases: functional
Rattus norvegicus [1] = species: Rattus norvegicus; assay: Compound was tested for 50% inhibition of incidence of lesions (UD50) in rat
Rattus norvegicus [2] = assay: Antiedema efficacy was measured in male Sprague-Dawley rats relative to aspirin; activity expressed as percent of aspirin
[3] = Ratio between ulcerogenicity and anti edema activity (UD50/ED25)
Rattus norvegicus [4] = species: Rattus norvegicus; assay: Effective dose of compound to produce 25% inhibition in rat; Value ranges from 326-499

Compound: CCCCCCCCCC(=O)OCC(COC(=O)CCCCCCCCC)OC1(C)OC(=O)c2ccccc2O1 (configuration not stated)
- UD50 (Rattus norvegicus [1]): 4102 µM/kg
- Activity (Rattus norvegicus [2]): 100%
- Ratio [3]: 10.6

Compound: CC(=O)Oc1ccccc1C(=O)O [ASPIRIN]
- ED25 (Rattus norvegicus [4]): 402 µM/kg
- Activity (Rattus norvegicus [2]): 100%

Compound: CCCCCCCCCCCCCCCC(=O)OCC(COC(=O)CCCCCCCCCCCCCCC)OC1(C)OC(=O)c2ccccc2O1 (configuration not stated)
- Activity (Rattus norvegicus [2]): 62%

Compound: CC(=O)OCC(COC(C)=O)OC1(C)OC(=O)c2ccccc2O1 (configuration not stated)
- Activity (Rattus norvegicus [2]): 62%
